What follows are molecules tested against T1, Human Glucocorticoid Receptor (Homo sapiens, UniProt P04150) (assay: Competition Binding in IM-9 Human Glucocorticoid Receptor (GR IM-9)). Conditions: cytosol from IM-9 cell line, 1.5 nM [3H]-Dexamethasone, 4° C. for 6 hours.
T1 construct: endogenous in cells; host or cells: cytosol from IM-9 cell line
T1 sequence (P04150 1-777): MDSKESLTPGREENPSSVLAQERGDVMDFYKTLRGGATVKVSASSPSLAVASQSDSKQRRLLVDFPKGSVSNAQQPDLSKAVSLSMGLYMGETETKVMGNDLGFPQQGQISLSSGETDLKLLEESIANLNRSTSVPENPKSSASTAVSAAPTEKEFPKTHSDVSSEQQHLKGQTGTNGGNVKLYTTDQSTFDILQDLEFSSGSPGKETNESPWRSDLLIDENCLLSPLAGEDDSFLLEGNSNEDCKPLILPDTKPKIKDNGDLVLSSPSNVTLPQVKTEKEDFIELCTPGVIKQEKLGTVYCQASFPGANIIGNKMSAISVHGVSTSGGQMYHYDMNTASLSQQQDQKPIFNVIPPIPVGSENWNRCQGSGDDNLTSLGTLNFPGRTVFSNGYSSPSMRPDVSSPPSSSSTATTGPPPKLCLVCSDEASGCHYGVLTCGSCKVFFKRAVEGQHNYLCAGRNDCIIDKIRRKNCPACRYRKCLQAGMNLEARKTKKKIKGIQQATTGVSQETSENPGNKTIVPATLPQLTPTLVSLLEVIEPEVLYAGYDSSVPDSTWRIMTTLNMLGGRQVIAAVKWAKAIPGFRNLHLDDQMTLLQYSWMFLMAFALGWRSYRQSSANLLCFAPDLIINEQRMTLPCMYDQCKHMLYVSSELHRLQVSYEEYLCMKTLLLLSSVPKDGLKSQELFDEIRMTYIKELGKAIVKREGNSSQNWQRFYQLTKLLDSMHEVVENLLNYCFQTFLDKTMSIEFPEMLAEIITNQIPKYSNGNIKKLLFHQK
Method: Competition Binding in IM-9 Human Glucocorticoid Receptor (GR IM-9)
Glucocorticoid receptor competition binding assays were carried out in a polypropilene 96-well plate. In each well was incubated 100 μg of cytosol from IM-9 cell line, 1.5 nM [3H]-Dexamethasone (71 Ci/mmol, 1 mCi/ml, Perkin Elmer NET1192001MC) and compounds studied and standard. Non-specific binding was determined in the presence of Triamcinolone 10 μM (Sigma Aldrich T6376).
The reaction mixture (Vt: 200 μl/well) was incubated at 4° C. for 6 hours, 180 μL was transferred to GF/B 96-well plate (Millipore, Madrid, Spain) pretreated with 0.5% of PEI and treated with binding buffer (TES 10 mM, sodium molybdate 10 mM, EDTA 1 mM, pH 7.4, 2-mercaptoethanol 20 mM, Glycerol 10%) after was filtered and washed six times with 250 μl wash buffer (TES 10 mM, sodium molybdate 10 mM, EDTA 1 mM, pH 7.4, 2-mercaptoethanol 20 mM Glycerol 10%), before measuring in a microplate beta scintillation counter (Microbeta Trilux, PerkinElmer, Madrid, Spain).

IC50, < 100 nM:
CC(=O)C1=C(C)NC(C2CC2)=C(C(=O)OC2COC2)C1c1csc2c(Br)cccc12 (stereo not drawn) [Example C81, Oxetan-3-yl 5-acetyl-4-(7-bromobenzo[b]thiophen-3-yl)-2-cyclopropyl-6-methyl-1,4-dihydropyridine-3-carboxylate]
CC(=O)C1=C(C)NC(C2CC2)=C(C(=O)OC(C)C)C1c1csc2c(Br)cccc12 (stereo not drawn) [Example C82, Isopropyl 5-acetyl-4-(7-bromobenzo[b]thiophen-3-yl)-2-cyclopropyl-6-methyl-1,4-dihydropyridine-3-carboxylate]
CC(=O)C1=C(C)NC(C2CC2)=C(C(=O)OCC2CC2)C1c1csc2c(Br)cccc12 (stereo not drawn) [Example C84, Cyclopropylmethyl 5-acetyl-4-(7-bromobenzo[b]thiophen-3-yl)-2-cyclopropyl-6-methyl-1,4-dihydropyridine-3-carboxylate]
CC(=O)C1=C(C)NC(C2CC2)=C(C(=O)OC2CCCCC2)C1c1csc2ncccc12 (stereo not drawn) [Example C91, Cyclohexyl 5-acetyl-2-cyclopropyl-6-methyl-4-(thieno[2,3-b]pyridin-3-yl)-1,4-dihydropyridine-3-carboxylate]
CC(=O)C1=C(C)NC(C2CC2)=C(C(=O)OC(C)(C)c2ccccc2)C1c1csc2ncccc12 (stereo not drawn) [Example C92, 2-phenylpropan-2-yl 5-acetyl-2-cyclopropyl-6-methyl-4-(thieno[2,3-b]pyridin-3-yl)-1,4-dihydropyridine-3-carboxylate]
CC(=O)C1=C(C)NC(C2CC2)=C(C(=O)OCc2cccc(Cl)c2)C1c1csc2ncccc12 (stereo not drawn) [Example C94, 3-chlorobenzyl 5-acetyl-2-cyclopropyl-6-methyl-4-(thieno[2,3-b]pyridin-3-yl)-1,4-dihydropyridine-3-carboxylate]
CC(=O)C1=C(C)NC(C)=C(C(=O)OC(C)(C)c2ccc(F)cc2)C1c1csc2ncccc12 (stereo not drawn) [Example C95, 2-(4-fluorophenyl)propan-2-yl 5-acetyl-2,6-dimethyl-4-(thieno[2,3-b]pyridin-3-yl)-1,4-dihydropyridine-3-carboxylate]
CC(=O)C1=C(C)NC(C2CC2)=C(C(=O)OC(C)(C)c2ccc(F)cc2)C1c1csc2ncccc12 (stereo not drawn) [Example C97, 2-(4-fluorophenyl)propan-2-yl 5-acetyl-2-cyclopropyl-6-methyl-4-(thieno[2,3-b]pyridin-3-yl)-1,4-dihydropyridine-3-carboxylate]
CC(=O)C1=C(C)NC(C2CC2)=C(C(=O)OC2CCCC2)C1c1csc2ncccc12 (stereo not drawn) [Example C100, Cyclopentyl 5-acetyl-2-cyclopropyl-6-methyl-4-(thieno[2,3-b]pyridin-3-yl)-1,4-dihydropyridine-3-carboxylate]
CC(=O)C1=C(C)NC(C2CC2)=C(C(=O)OCC2CC2)C1c1csc2c(C#N)cccc12 (stereo not drawn) [Example C101, Cyclopropylmethyl 5-acetyl-4-(7-cyanobenzo[b]thiophen-3-yl)-2-cyclopropyl-6-methyl-1,4-dihydropyridine-3-carboxylate]
COC(=O)C1=C(C)NC(C2CC2)=C(C(=O)OC)C1c1csc2c(C#N)cccc12 (stereo not drawn) [Example C103, Dimethyl 4-(7-cyanobenzo[b]thiophen-3-yl)-2-cyclopropyl-6-methyl-1,4-dihydropyridine-3,5-dicarboxylate]
COC(=O)C1=C(C2CC2)NC(C)=C(C#N)C1c1csc2c(C#N)cccc12 (stereo not drawn) [Example C104, Methyl 5-cyano-4-(7-cyanobenzo[b]thiophen-3-yl)-2-cyclopropyl-6-methyl-1,4-dihydropyridine-3-carboxylate]
COC(=O)C1=C(C)NC(C2CC2)=C(C(=O)OCC2CC2)C1c1csc2c(C#N)cccc12 (stereo not drawn) [Example C109, 3-(cyclopropylmethyl) 5-methyl 4-(7-cyanobenzo[b]thiophen-3-yl)-2-cyclopropyl-6-methyl-1,4-dihydropyridine-3,5-dicarboxylate]
COC(=O)C1=C(C2CC2)NC(C2CC2)=C(C(=O)OCC2CC2)C1c1csc2c(C#N)cccc12 (stereo not drawn) [Example C110, 3-(cyclopropylmethyl) 5-methyl 4-(7-cyanobenzo[b]thiophen-3-yl)-2,6-dicyclopropyl-1,4-dihydropyridine-3,5-dicarboxylate]
CC1=C(C#N)C(c2csc3c(C#N)cccc23)C(C(=O)OCC2CC2)=C(C2CC2)N1 (stereo not drawn) [Example C111, Cyclopropylmethyl 5-cyano-4-(7-cyanobenzo[b]thiophen-3-yl)-2-cyclopropyl-6-methyl-1,4-dihydropyridine-3-carboxylate]

IC50, ≥ 1000 nM:
CC(=O)C1=C(C)NC(C)=C(C(=O)OCc2ccncc2F)C1c1csc2ncccc12 (stereo not drawn) [Example C68, (3-fluoropyridin-4-yl)methyl 5-acetyl-2,6-dimethyl-4-(thieno[2,3-b]pyridin-3-yl)-1,4-dihydropyridine-3-carboxylate]
COC(=O)C1=C(C2CC2)NC(C)=C(C(C)=O)C1c1csc2c(C(=O)C(F)(F)F)cccc12 (stereo not drawn) [Example C85, Methyl 5-acetyl-2-cyclopropyl-6-methyl-4-(7-(2,2,2-trifluoroacetyl)benzo[b]thiophen-3-yl)-1,4-dihydropyridine-3-carboxylate]

IC50, 100 to 1000 nM:
CC(=O)C1=C(C)NC(C)=C(C(=O)OCc2ccnc(Cl)c2)C1c1csc2ncccc12 (stereo not drawn) [Example C77, (2-chloropyridin-4-yl)methyl 5-acetyl-2,6-dimethyl-4-(thieno[2,3-b]pyridin-3-yl)-1,4-dihydropyridine-3-carboxylate]
COC(=O)C1=C(C(F)(F)F)NC(C)=C(C(C)=O)C1c1csc2c(Br)cccc12 (stereo not drawn) [Example C83, Methyl 5-acetyl-4-(7-bromobenzo[b]thiophen-3-yl)-6-methyl-2-(trifluoromethyl)-1,4-dihydropyridine-3-carboxylate]
CC(=O)C1=C(C)NC(C)=C(C(=O)OC(C)(C)c2ccccc2)C1c1csc2c(Br)cccc12 (stereo not drawn) [Example C86, 2-phenylpropan-2-yl 5-acetyl-4-(7-bromobenzo[b]thiophen-3-yl)-2,6-dimethyl-1,4-dihydropyridine-3-carboxylate]
CC(=O)C1=C(C)NC(C2CC2)=C(C(=O)C2CC2)C1c1csc2c(Br)cccc12 (stereo not drawn) [Example C93, 1-(4-(7-Bromobenzo[b]thiophen-3-yl)-5-(cyclopropanecarbonyl)-6-cyclopropyl-2-methyl-1,4-dihydropyridin-3-yl)ethan-1-one]
CC(=O)C1=C(C)NC(C2CC2)=C(C(=O)OC(C)(C)c2ccc(F)cc2)C1c1csc2c(Br)cccc12 (stereo not drawn) [Example C96, 2-(4-fluorophenyl)propan-2-yl 5-acetyl-4-(7-bromobenzo[b]thiophen-3-yl)-2-cyclopropyl-6-methyl-1,4-dihydropyridine-3-carboxylate]
COC(=O)C1=C(C2CC2)NC(C)=C(C(C)=O)C1c1csc2c(F)cccc12 (stereo not drawn) [Example C98, Methyl 5-acetyl-2-cyclopropyl-4-(7-fluorobenzo[b]thiophen-3-yl)-6-methyl-1,4-dihydropyridine-3-carboxylate]
CC(=O)C1=C(C)NC(C2CC2)=C(C(=O)OCC2CC2)C1c1csc2ncccc12 (stereo not drawn) [Example C99, Cyclopropylmethyl 5-acetyl-2-cyclopropyl-6-methyl-4-(thieno[2,3-b]pyridin-3-yl)-1,4-dihydropyridine-3-carboxylate]
COC(=O)C1=C(C2CCC2)NC(C)=C(C(C)=O)C1c1csc2c(Br)cccc12 (stereo not drawn) [Example C102, Methyl 5-acetyl-4-(7-bromobenzo[b]thiophen-3-yl)-2-cyclobutyl-6-methyl-1,4-dihydropyridine-3-carboxylate]
COC(=O)C1=C(C2CCCC2)NC(C)=C(C(C)=O)C1c1csc2c(Br)cccc12 (stereo not drawn) [Example C105, Methyl 5-acetyl-4-(7-bromobenzo[b]thiophen-3-yl)-2-cyclopentyl-6-methyl-1,4-dihydropyridine-3-carboxylate]
COC(=O)C1=C(C2CCCCC2)NC(C)=C(C(C)=O)C1c1csc2c(Br)cccc12 (stereo not drawn) [Example C106, Methyl 5-acetyl-4-(7-bromobenzo[b]thiophen-3-yl)-2-cyclohexyl-6-methyl-1,4-dihydropyridine-3-carboxylate]

From patent US11453660B2, “Androgen receptor and glucocorticoid receptor modulators” (ONCOSTELLAE, S.L., priority 2017, dated 2022)
